From patent publication US11851446B2, “Probes for imaging Huntingtin protein” (CHDI Foundation, Inc., priority 2014, dated 2023)

biological target: T1, Q46 protein aggregates (Homo sapiens, UniProt P42858, INS38QQQQQQQQQQQQQQQQQQQQQQQQQ); test: Q46 Radioligand Binding Assay (RBA); details: displacement of 10 nM [3H3]MK-3328 from 5 μM aggregated Q46 protein, 60 minutes at 37° C.
T1 construct: fused on or other part: GST at the N-terminus, cut off by thrombin before the test to start aggregation
Description: Q46 Radioligand Binding Assay
For radioligand binding assays (RBA) GST-Q46 protein was generated based on a previous publication (Scherzinger et al. Cell, Vol. 90, 549-558, Aug. 8, 1997). For experiments 33 μM GST-Q46 was incubated with 150 μg/mL thrombin in assay buffer (150 mM NaCl, 50 mM Tris pH 8.0) and 2 mM CaCl2 for 16 hours at 37° C. Aggregated Q46 was pelleted by centrifugation for 5 minutes at 13,000 rpm in a bench top centrifuge and re-dissolved in the same volume of assay buffer. Test compounds were prepared by titration in DMSO at 11 concentrations from 33 μM to 1 nM. For the RBA, Q46 protein aggregates and test compounds were pre-incubated in assay buffer for 20 minutes at room temperature, in 140 μL/well in a 96-well plate (pp, round bottom). Then, ligand was added in 10 μL/well and incubated for 60 minutes at 37° C. Final assay concentrations were […] test compound, 5 μM Q46 protein (equivalent monomer concentration) and 10 nM ligand [^3H3]MK-3328 (Harrision et al., ACS Med. Chem. Lett., 2 (2011), pp 498-502). Samples were transferred onto GF/B filter plates and washed 2× with 200 μL PBS using a Filtermate Harvester. After drying filter plates for 1 hour at 37° C., the back of the plates was sealed with foil and 30 μl/well scintillation fluid (Packard MicroScint 40) was added, incubated for […] 15 minutes in the dark and counted in a TopCount reader. For analysis, replicate data from independent assay plates were normalized towards 0% and 100% inhibition using control wells of vehicle (0% inhibition) and 3 μM unlabelled MK-3328 (100% inhibition). IC50 values were determined with a sigmoidal inhibition model with four variables (top, bottom, slope, IC50) in a global fit using the normalized replicate data.

T1 sequence (P42858 with tags, fused parts or gaps with the stated changes): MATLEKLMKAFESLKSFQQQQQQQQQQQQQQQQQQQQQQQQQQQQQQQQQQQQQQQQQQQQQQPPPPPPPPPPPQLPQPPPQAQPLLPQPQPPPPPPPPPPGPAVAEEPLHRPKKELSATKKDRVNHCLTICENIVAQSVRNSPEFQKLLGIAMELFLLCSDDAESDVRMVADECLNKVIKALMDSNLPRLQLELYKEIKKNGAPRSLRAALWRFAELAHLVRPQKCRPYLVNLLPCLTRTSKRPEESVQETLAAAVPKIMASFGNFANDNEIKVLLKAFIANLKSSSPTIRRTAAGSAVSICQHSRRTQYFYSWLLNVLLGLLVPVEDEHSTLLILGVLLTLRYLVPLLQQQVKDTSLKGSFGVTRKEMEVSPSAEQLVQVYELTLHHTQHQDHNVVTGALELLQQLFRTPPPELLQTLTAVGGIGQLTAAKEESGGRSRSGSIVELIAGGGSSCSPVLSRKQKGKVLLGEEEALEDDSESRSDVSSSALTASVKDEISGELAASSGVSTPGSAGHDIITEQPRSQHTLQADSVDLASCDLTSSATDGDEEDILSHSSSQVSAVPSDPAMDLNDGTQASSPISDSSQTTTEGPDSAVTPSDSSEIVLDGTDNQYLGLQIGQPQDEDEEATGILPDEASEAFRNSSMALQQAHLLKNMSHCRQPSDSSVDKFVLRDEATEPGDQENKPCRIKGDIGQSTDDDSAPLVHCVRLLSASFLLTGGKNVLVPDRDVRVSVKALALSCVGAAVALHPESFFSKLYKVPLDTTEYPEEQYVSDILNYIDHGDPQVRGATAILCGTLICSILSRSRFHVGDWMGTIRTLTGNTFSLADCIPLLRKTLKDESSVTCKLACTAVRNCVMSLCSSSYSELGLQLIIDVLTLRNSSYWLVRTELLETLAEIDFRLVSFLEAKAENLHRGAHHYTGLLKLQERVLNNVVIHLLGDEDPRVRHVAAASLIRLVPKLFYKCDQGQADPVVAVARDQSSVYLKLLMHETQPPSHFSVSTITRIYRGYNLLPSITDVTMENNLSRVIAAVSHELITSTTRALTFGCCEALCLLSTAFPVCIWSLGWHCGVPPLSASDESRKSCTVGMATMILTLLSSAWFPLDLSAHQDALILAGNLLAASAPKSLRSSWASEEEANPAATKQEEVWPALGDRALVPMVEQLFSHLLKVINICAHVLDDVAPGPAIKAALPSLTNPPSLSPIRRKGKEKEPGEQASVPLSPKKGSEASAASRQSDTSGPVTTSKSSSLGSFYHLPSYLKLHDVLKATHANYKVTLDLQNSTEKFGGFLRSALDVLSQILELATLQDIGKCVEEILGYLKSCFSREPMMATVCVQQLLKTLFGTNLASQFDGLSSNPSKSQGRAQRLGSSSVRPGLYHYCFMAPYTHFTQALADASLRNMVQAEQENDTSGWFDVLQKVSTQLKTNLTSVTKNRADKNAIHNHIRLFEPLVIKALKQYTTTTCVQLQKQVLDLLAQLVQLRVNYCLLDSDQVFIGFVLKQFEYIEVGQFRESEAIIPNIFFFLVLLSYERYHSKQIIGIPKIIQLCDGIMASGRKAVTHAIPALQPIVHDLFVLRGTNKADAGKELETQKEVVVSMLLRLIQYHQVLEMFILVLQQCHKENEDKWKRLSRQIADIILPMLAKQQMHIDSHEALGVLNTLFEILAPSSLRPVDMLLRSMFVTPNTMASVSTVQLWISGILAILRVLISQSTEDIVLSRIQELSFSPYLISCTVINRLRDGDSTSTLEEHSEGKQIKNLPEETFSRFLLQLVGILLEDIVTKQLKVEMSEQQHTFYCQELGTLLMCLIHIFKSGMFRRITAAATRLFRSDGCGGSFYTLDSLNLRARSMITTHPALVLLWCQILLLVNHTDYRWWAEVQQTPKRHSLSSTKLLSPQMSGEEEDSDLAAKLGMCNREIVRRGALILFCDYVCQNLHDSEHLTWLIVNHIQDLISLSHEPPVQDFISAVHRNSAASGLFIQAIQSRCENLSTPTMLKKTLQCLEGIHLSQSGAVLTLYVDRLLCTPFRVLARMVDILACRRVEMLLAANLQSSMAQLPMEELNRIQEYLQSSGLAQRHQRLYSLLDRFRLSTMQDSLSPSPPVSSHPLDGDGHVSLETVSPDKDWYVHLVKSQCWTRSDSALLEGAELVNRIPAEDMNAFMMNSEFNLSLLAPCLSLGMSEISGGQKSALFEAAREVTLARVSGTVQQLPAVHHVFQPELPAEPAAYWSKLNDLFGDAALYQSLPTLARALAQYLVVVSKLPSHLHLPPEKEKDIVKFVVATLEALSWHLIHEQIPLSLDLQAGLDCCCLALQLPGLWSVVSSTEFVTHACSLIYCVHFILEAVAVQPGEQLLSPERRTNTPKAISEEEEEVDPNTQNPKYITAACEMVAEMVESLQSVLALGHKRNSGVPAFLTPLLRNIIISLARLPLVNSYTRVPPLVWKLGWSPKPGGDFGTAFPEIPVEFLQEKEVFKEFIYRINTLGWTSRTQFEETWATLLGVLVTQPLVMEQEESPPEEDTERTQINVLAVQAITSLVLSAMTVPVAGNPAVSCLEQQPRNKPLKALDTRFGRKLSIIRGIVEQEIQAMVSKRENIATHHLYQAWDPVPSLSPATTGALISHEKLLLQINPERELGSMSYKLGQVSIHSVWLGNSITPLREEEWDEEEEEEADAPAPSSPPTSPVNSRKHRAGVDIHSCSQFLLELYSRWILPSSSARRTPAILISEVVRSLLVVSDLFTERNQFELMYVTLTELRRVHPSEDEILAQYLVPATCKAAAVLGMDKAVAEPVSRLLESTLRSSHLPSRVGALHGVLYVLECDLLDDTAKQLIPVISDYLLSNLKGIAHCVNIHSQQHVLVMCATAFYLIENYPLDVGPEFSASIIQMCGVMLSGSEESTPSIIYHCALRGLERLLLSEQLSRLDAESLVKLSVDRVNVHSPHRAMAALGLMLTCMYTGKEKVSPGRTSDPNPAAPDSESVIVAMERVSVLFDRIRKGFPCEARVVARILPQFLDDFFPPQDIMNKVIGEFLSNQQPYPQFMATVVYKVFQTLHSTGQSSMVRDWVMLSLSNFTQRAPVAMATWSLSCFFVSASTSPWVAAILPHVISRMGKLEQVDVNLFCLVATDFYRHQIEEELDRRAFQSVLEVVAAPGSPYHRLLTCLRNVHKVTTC

Structure (SMILES) | IC50 [nM]
CNc1c(-c2cc3cc(O)ccc3o2)nc2ccc(F)cn12 [2-[6-fluoro-3-(methylamino)imidazo[1,2-a]pyridin-2-yl]-1-benzofuran-5-ol] | 100 to 500
OCCNc1c(-c2cc3cc(O)ccc3o2)nc2ccccn12 [2-{3-[(2-hydroxyethyl)amino]imidazo[1,2-a]pyridin-2-yl}-1-benzofuran-5-ol] | 100 to 500
CNc1c(-c2cc3cc(OCCN(C)C)ccc3o2)nc2cc(C#N)ccn12 [2-{5-[2-(dimethylamino)ethoxy]-1-benzofuran-2-yl}-3-(methylamino)imidazo[1,2-a]pyridine-7-carbonitrile] | 100 to 500
COc1ccc2oc(-c3nc4cc(C#N)ccn4c3N(C)C)cc2c1 [3-(dimethylamino)-2-(5-methoxy-1-benzofuran-2-yl)imidazo[1,2-a]pyridine-7-carbonitrile] | 100 to 500
CNc1c(-c2cccc(OCc3cccnc3)c2)nc2cc(C#N)ccn12 [3-(methylamino)-2-[3-(pyridin-3-ylmethoxy)phenyl]imidazo[1,2-a]pyridine-7-carbonitrile] | < 100
C#CCOc1ccc(-c2nc3cc(C#N)ccn3c2NC)cc1 [3-(methylamino)-2-[4-(prop-2-yn-1-yloxy)phenyl]imidazo[1,2-a]pyridine-7-carbonitrile] | 100 to 500
CNc1c(-c2ccc(-c3cnccn3)cc2)nc2cc(C#N)ccn12 [3-(methylamino)-2-[4-(pyrazin-2-yl)phenyl]imidazo[1,2-a]pyridine-7-carbonitrile] | < 100
CNc1c(-c2ccc(OCc3cccnc3)cc2)nc2cc(C#N)ccn12 [3-(methylamino)-2-[4-(pyridin-3-ylmethoxy)phenyl]imidazo[1,2-a]pyridine-7-carbonitrile] | < 100
CNc1c(-c2cc3cc(OCc4cccnc4)ccc3o2)nc2cc(C#N)ccn12 [3-(methylamino)-2-[5-(pyridin-3-ylmethoxy)-1-benzofuran-2-yl]imidazo[1,2-a]pyridine-7-carbonitrile] | < 100
CNc1c(-c2cccc(COCc3cccnc3)c2)nc2cc(C#N)ccn12 [3-(methylamino)-2-{3-[(pyridin-3-ylmethoxy)methyl]phenyl}imidazo[1,2-a]pyridine-7-carbonitrile] | 100 to 500
CNc1c(-c2ccc(COCc3cccnc3)cc2)nc2cc(C#N)ccn12 [3-(methylamino)-2-{4-[(pyridin-3-ylmethoxy)methyl]phenyl}imidazo[1,2-a]pyridine-7-carbonitrile] | 100 to 500
COc1ccc2oc(-c3nc4cc(C#N)ccn4c3CN(C)C)cc2c1 [3-[(dimethylamino)methyl]-2-(5-methoxy-1-benzofuran-2-yl)imidazo[1,2-a]pyridine-7-carbonitrile] | 100 to 500
COc1ccc2oc(-c3nc4cc(C#N)ccn4c3N)cc2c1 [3-amino-2-(5-methoxy-1-benzofuran-2-yl)imidazo[1,2-a]pyridine-7-carbonitrile] | < 100
N#Cc1ccn2c(N)c(-c3cc4cc(OCCF)ccc4o3)nc2c1 [3-amino-2-[5-(2-fluoroethoxy)-1-benzofuran-2-yl]imidazo[1,2-a]pyridine-7-carbonitrile] | < 100
COc1ccc2oc(-c3nc4cc(C#N)ccn4c3NCCN(C)C)cc2c1 [3-{[2-(dimethylamino)ethyl]amino}-2-(5-methoxy-1-benzofuran-2-yl)imidazo[1,2-a]pyridine-7-carbonitrile] | 100 to 500
CNc1c(-c2cc3cc(OC)ccc3o2)nc2ccc(F)cn12 [6-fluoro-2-(5-methoxy-1-benzofuran-2-yl)-N-methylimidazo[1,2-a]pyridin-3-amine] | < 100
CNc1c(-c2cc3cc(OC)ccc3o2)nc2cc(CN)ccn12 [7-(aminomethyl)-2-(5-methoxy-1-benzofuran-2-yl)-N-methylimidazo[1,2-a]pyridin-3-amine] | 100 to 500
CNc1c(-c2cc3cc(OC)ccc3o2)nc2cc(Br)ccn12 [7-bromo-2-(5-methoxy-1-benzofuran-2-yl)-N-methylimidazo[1,2-a]pyridin-3-amine] | < 100
CNc1c(-c2cc3cc(OC)ccc3o2)nc2cc(Cl)ccn12 [7-chloro-2-(5-methoxy-1-benzofuran-2-yl)-N-methylimidazo[1,2-a]pyridin-3-amine] | < 100
C#Cc1ccn2c(NC)c(-c3cc4cc(OC)ccc4o3)nc2c1 [7-ethynyl-2-(5-methoxy-1-benzofuran-2-yl)-N-methylimidazo[1,2-a]pyridin-3-amine] | < 100
CNc1c(-c2cc3cc(OC)ccc3o2)nc2cc(F)ccn12 [7-fluoro-2-(5-methoxy-1-benzofuran-2-yl)-N-methylimidazo[1,2-a]pyridin-3-amine] | < 100
CNc1c(-c2cc3cc(OC)ccc3o2)nc2cc(OC)ccn12 [7-methoxy-2-(5-methoxy-1-benzofuran-2-yl)-N-methylimidazo[1,2-a]pyridin-3-amine] | < 100

The next lines start with the values.

IC50 [nM] | Structure (SMILES)
< 100 | COc1ccc2oc(-c3cn4ccc(C#N)cc4n3)cc2c1 [2-(5-methoxy-1-benzofuran-2-yl)imidazo[1,2-a]pyridine-7-carbonitrile]
< 100 | CNc1c(-c2nc3cc(OC)ccc3n2C)nc2cc(C#N)ccn12 [2-(5-methoxy-1-methyl-1H-1,3-benzodiazol-2-yl)-3-(methylamino)imidazo[1,2-a]pyridine-7-carbonitrile]
< 100 | CNc1c(-c2nc3cc(OC)ccc3[nH]2)nc2cc(C#N)ccn12 [2-(5-methoxy-1H-1,3-benzodiazol-2-yl)-3-(methylamino)imidazo[1,2-a]pyridine-7-carbonitrile]
< 100 | CNc1c(-c2nc3ccc(OC)cc3s2)nc2cc(C#N)ccn12 [2-(6-methoxy-1,3-benzothiazol-2-yl)-3-(methylamino)imidazo[1,2-a]pyridine-7-carbonitrile]
< 100 | CNc1c(-c2cc3ccc(OC)cc3o2)nc2cc(C#N)ccn12 [2-(6-methoxy-1-benzofuran-2-yl)-3-(methylamino)imidazo[1,2-a]pyridine-7-carbonitrile]
< 100 | CNc1c(-c2nc3ccc(OC)cc3n2C)nc2cc(C#N)ccn12 [2-(6-methoxy-1-methyl-1H-1,3-benzodiazol-2-yl)-3-(methylamino)imidazo[1,2-a]pyridine-7-carbonitrile]
< 100 | CNc1c(-c2cc3cc(O)ccc3o2)nc2cc(F)ccn12 [2-[7-fluoro-3-(methylamino)imidazo[1,2-a]pyridin-2-yl]-1-benzofuran-5-ol]
< 100 | CNc1c(/C=C/c2ccc(OC)cc2)nc2cc(C#N)ccn12 [2-[(E)-2-(4-methoxyphenyl)ethenyl]-3-(methylamino)imidazo[1,2-a]pyridine-7-carbonitrile]
< 100 | CNc1c(-c2cccc(OCc3cnc(OC)cn3)c2)nc2cc(C#N)ccn12 [2-{3-[(5-methoxypyrazin-2-yl)methoxy]phenyl}-3-(methylamino)imidazo[1,2-a]pyridine-7-carbonitrile]
< 100 | CNc1c(-c2ccc(OCc3cnc(OC)cn3)cc2)nc2cc(C#N)ccn12 [2-{4-[(5-methoxypyrazin-2-yl)methoxy]phenyl}-3-(methylamino)imidazo[1,2-a]pyridine-7-carbonitrile]
< 100 | CNc1c(-c2ccc(OCc3cnc(OC)cn3)cn2)nc2cc(C#N)ccn12 [2-{5-[(5-methoxypyrazin-2-yl)methoxy]pyridin-2-yl}-3-(methylamino)imidazo[1,2-a]pyridine-7-carbonitrile]
< 100 | CNc1c(-c2cnc(OCc3ccc(OC)cn3)cn2)nc2cc(C#N)ccn12 [2-{5-[(5-methoxypyridin-2-yl)methoxy]pyrazin-2-yl}-3-(methylamino)imidazo[1,2-a]pyridine-7-carbonitrile]
< 100 | CNc1c(-c2ccc(OCc3cnc(OC)cn3)nc2)nc2cc(C#N)ccn12 [2-{6-[(5-methoxypyrazin-2-yl)methoxy]pyridin-3-yl}-3-(methylamino)imidazo[1,2-a]pyridine-7-carbonitrile]
< 100 | CNc1c(-c2cn3c(n2)sc2cc(OC)ccc23)nc2cc(C#N)ccn12 [2-{10-methoxy-7-thia-2,5-diazatricyclo[6.4.0.0^2,6]dodeca-1(12),3,5,8,10-pentaen-4-yl}-3-(methylamino)imidazo[1,2-a]pyridine-7-carbonitrile]
< 100 | CNc1c(-c2cn3c(n2)sc2ccc(OC)cc23)nc2cc(C#N)ccn12 [2-{11-methoxy-7-thia-2,5-diazatricyclo[6.4.0.0^2,6]dodeca-1(12),3,5,8,10-pentaen-4-yl}-3-(methylamino)imidazo[1,2-a]pyridine-7-carbonitrile]
< 100 | CNc1c(-c2cccc(-c3cnccn3)c2)nc2cc(C#N)ccn12 [3-(methylamino)-2-[3-(pyrazin-2-yl)phenyl]imidazo[1,2-a]pyridine-7-carbonitrile]
